{"source": "patent US20150320756A1", "about": "“TREATMENTS OF COCCIDIOSIS WITH INTRAMUSCULAR TRIAZINE COMPOSITIONS” (CEVA SANTE ANIMALE, priority 2012, published 2015)", "assay_type_in_all_cases": "in vivo", "key": {"[1]": {"test": "Pharmacokinetics: serum concentrations of toltrazuril and toltrazuril sulfone in 2 day-old piglets (Example B)", "method": "(§1) Protocol • Group 1: 10 piglets 2 days old were injected with once intramuscularly dose of toltrazuril C629 (Dose=20 mg toltrazuril per kg bodyweight—equivalent to 0.4 mL/Kg bodyweight) on SD0 • Group 2: 11 piglets 2 days old were injected with once intramuscularly dose of toltrazuril C629 (Dose=40 mg toltrazuril per kg bodyweight a—equivalent to 0.8 mL/kg bodyweight) on SD0 • Group 3: 9 piglets 2 days old were dosed orally with the standard commercial formulation of toltrazuril Cevazuril® (Dose=20 mg toltrazuril per kg bodyweight—equivalent to 0.4 mL/Kg bodyweight) on SD0. • Group 4: 8 piglets, left untreated.\n(§2) All four (4) groups of piglets were injected on SD0 with iron injection (Gleptosil®) at the dose rate of 1 ml per piglet. 3 days after treatment (on SD3), the piglets were orally challenged with a characterised strain of Isospora suis.\n(§3) The following study parameters were used to assess the efficacy of the test products: • Local and general tolerance (for Groups 1 and 2) • Occurrence of diarrhoea and faecal consistency • Oocyst excretion • Bodyweight development • Serum concentrations of toltrazuril and its metabolite toltrazuril sulfone (e.g ponazuril) in Group 1, 2 and 3."}, "[2]": {"test": "Local and general tolerance of a single intramuscular injection of toltrazuril in 3-day old piglets (Example A)", "method": "(§4) This target animal safety and efficacy study was conducted in a farm with known history of cocciodiosis. The main objective was to study the safety and efficacy of intramuscular injection of toltrazuril in comparison to the standard oral application. • Group 1: 8 piglets 3 days old were injected by a single intramuscular dose of toltrazuril (Dose=20 mg toltrazuril per kg bodyweight equivalent to 0.4 mL/kg bodyweight) on SD0. • Group 2: 8 piglets 3 days old were injected by one intramuscular dose of toltrazuril (60 mg toltrazuril per kg bodyweight equivalent to 1.2 mL/Kg bodyweight) on SD0 • Group 3: 8 piglets 3 days old were dosed orally with the standard commercial formulation of toltrazuril Cevazuril® (Dose=20 mg toltrazuril per kg bodyweight equivalent to 0.4 mL/Kg bodyweight) on SD0 • Group 4: 12 piglets 3 days old, left untreated.\n(§5) All four (4) groups of piglets were injected on SD0 with iron (Gleptosil®) at the dose rate of 1 ml per piglet."}, "[3]": {"test": "Local and general tolerance of intramuscular toltrazuril in 2 day-old piglets (Example B)", "details": "all tested doses (i.m. 20 and 40 mg/kg)", "method": "as §1, §2, §3"}, "Isospora suis": {"tested_on": "Isospora suis", "test": "Anti-coccidial efficacy in piglets orally challenged with Isospora suis (Example B)", "method": "as §1, §2, §3"}, "[4]": {"test": "Bodyweight development of piglets on a farm with known history of coccidiosis (Example A)", "method": "as §4, §5"}, "[5]": {"details": "G1, G2: single i.m. 20 or 40 mg/kg on SD0, Isospora suis challenge on SD3"}}, "data": [{"smiles": "Cc1cc(-n2c(=O)[nH]c(=O)n(C)c2=O)ccc1Oc1ccc(SC(F)(F)F)cc1", "note": "[toltrazuril]", "values": [{"measurement": "Absorption", "setting": "[1]; after intramuscular application, piglets", "result": "well absorbed"}, {"measurement": "Toltrazuril sulfone (ponazuril) kinetics, oral (G3) versus intramuscular (G1 and G2)", "setting": "[1]; metabolite after toltrazuril 20 mg/kg oral vs 20 or 40 mg/kg i.m.", "result": "not statistically different"}, {"measurement": "Serum level of toltrazuril sulfone", "setting": "[1]; upon intramuscular injection of toltrazuril (FIGS. 4 and 5)", "result": "rapid and sustained"}, {"measurement": "Time to disappearance of local reaction post injection", "setting": "[2]; piglets injected i.m. with 1.2 mL/kg bodyweight", "result": "less than 1 week"}, {"measurement": "Local reaction (oedema)", "setting": "[2]; piglets injected i.m. with 1.2 mL/kg bodyweight (60 mg/kg)", "result": "limited local reaction (Oedema) in some piglets"}, {"measurement": "General tolerance", "setting": "[2]; single intramuscular doses up to 60 mg/kg, 3-day old piglets", "result": "well tolerated"}, {"measurement": "Pain after injection", "setting": "[2]; single intramuscular injection, 3-day old piglets", "result": "No pain"}, {"measurement": "Tolerance", "setting": "[3]", "result": "well tolerated"}, {"measurement": "Fecal consistency", "setting": "Isospora suis; [5]", "result": "unchanged"}, {"measurement": "Oocyst excretion", "setting": "Isospora suis; [5]", "result": "No oocyst excretion was observed"}, {"measurement": "Weight gain versus control animals (G4)", "setting": "Isospora suis; G1, G2: single i.m. 20 or 40 mg/kg, infected piglets", "result": "gained more weight than the control animals"}, {"measurement": "Bodyweight gain versus control non treated piglets", "setting": "[4]; intramuscularly treated piglets, at SD0+29 days", "result": "+2 kg"}, {"measurement": "Bodyweight development", "setting": "[4]; single i.m. 20 or 60 mg/kg, 3-day old piglets", "result": "normal"}]}]}
